Values joined by “and” are separate entries in the source; they are usually repeats but may differ in a detail not shown here. Identical values can stand only once.
Legend:
[1] = target: Splicing factor 3B subunit 1 / PHD finger-like domain-containing protein 5A (Homo sapiens, UniProt O75533+Q7RTV0); assay: VEGF-PLAP; conditions: pH 7.8; 4 °C
Description: Placental alkaline phosphatase (PLAP) reporter assay controlled by VEGF promoter (VEGF-PLAP)

[2] = target: T1, Splicing factor 3B subunit 3 (Homo sapiens, UniProt Q15393); assay: WiDr; conditions: pH 7.8; 4 °C
T1 sequence (Q15393 whole entry): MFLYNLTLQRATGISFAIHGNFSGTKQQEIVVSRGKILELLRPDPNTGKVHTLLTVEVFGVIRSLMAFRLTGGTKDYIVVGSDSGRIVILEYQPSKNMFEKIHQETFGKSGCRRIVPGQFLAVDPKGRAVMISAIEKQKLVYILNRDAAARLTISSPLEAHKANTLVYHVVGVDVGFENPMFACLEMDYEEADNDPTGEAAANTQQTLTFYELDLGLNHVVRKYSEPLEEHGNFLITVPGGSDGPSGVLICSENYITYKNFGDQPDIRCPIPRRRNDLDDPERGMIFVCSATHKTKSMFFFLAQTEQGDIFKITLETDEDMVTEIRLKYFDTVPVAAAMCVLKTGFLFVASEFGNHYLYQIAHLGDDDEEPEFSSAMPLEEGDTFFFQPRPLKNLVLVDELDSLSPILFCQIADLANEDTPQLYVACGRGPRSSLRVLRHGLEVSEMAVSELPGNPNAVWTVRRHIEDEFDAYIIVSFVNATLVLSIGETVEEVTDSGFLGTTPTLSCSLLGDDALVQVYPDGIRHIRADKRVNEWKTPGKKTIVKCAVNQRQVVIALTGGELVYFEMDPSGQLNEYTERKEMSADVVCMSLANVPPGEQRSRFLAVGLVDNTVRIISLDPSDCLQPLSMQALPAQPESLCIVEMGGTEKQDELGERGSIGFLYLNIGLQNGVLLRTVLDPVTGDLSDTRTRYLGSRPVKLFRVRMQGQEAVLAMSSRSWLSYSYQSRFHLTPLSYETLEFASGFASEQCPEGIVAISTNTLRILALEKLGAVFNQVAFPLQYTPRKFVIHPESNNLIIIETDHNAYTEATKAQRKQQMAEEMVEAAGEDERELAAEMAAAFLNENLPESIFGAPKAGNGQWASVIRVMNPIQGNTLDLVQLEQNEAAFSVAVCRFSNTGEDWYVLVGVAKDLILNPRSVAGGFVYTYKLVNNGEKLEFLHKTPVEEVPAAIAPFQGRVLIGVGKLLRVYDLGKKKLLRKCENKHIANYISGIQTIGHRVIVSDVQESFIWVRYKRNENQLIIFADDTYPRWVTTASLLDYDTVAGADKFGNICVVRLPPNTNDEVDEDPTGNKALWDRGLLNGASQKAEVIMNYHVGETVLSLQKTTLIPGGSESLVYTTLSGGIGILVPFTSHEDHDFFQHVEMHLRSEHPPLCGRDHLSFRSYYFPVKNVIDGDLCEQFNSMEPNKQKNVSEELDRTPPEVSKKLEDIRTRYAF
Description: Cell proliferation assay using WiDr

Splicing factor 3B subunit 1 / PHD finger-like domain-containing protein 5A, sequence (O75533 whole entry, the tested form may be a part): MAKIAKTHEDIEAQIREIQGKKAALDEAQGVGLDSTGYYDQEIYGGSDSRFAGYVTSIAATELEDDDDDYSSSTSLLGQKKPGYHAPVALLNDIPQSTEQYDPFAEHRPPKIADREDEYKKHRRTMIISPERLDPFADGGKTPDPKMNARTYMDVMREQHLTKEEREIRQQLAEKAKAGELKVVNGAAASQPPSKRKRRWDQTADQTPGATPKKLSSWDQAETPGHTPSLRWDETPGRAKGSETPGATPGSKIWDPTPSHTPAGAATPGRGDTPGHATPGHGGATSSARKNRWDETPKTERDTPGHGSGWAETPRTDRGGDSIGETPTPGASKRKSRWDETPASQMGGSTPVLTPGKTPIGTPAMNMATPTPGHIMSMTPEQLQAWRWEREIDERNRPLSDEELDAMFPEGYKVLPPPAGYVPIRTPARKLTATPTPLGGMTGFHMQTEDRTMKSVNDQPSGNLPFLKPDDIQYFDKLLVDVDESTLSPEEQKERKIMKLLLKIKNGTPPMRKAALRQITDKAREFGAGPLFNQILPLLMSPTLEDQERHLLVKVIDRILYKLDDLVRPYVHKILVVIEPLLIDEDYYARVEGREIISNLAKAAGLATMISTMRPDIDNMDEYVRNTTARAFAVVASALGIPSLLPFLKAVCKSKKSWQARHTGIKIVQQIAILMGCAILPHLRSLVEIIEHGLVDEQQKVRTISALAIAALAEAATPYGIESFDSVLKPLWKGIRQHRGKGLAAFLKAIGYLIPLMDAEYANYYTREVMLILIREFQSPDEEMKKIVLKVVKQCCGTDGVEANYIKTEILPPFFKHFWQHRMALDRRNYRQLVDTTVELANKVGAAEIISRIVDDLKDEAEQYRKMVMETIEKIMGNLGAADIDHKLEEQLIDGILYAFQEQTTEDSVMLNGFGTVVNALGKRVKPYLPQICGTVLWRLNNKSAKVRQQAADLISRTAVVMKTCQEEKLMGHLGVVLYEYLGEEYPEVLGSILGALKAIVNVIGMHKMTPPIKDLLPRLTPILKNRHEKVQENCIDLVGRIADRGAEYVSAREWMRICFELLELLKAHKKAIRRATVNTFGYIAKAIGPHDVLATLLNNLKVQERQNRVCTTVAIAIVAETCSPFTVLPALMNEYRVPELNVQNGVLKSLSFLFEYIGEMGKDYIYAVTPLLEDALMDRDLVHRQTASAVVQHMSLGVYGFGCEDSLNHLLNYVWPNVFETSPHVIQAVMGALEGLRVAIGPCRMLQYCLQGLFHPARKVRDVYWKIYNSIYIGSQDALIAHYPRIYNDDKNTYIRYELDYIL
Splicing factor 3B subunit 1 / PHD finger-like domain-containing protein 5A, sequence (Q7RTV0 2-110 limits assumed): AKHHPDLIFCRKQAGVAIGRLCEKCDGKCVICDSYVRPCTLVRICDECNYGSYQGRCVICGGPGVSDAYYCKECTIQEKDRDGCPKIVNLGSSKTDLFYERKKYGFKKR

Structure (SMILES) | EC50 [1] | EC50 [2]
CCNC(=O)O[C@H]1/C=C/[C@H](C)[C@@H](/C(C)=C/C=C/[C@@H](C)C[C@H]2O[C@@H]2[C@H](C)[C@@H](O)CC)OC(=O)C[C@H](O)CC[C@@]1(C)O [CID16202133] | 4.9 nM | 6.1 nM
CC[C@H](O)[C@@H](C)[C@H]1O[C@@H]1C[C@H](C)/C=C/C=C(\C)[C@H]1OC(=O)C[C@H](O)CC[C@@](C)(O)[C@@H](OC(=O)NCCCC[C@H](NC(=O)c2ccc(C3(C(F)(F)F)N=N3)cc2)C(=O)N(C)CCN(C)C(=O)CCCC[C@H]2SC[C@H]3NC(=O)N[C@H]32)/C=C/[C@@H]1C [CID1620213] | – | 595 nM
CC[C@H](O)[C@@H](C)[C@H]1O[C@@H]1C[C@@](C)(O)/C=C/C=C(\C)[C@H]1OC(=O)C[C@H](O)CC[C@@](C)(O)[C@@H](OC(C)=O)/C=C/[C@@H]1C [(3R,6R,7S,8E,10S,11S,12E,14E,16R,18R,19R,20R,21S)-7-acetoxy-3,6,16,21-tetrahydroxy-6,10,12,16,20-pentamethyl-18,19-epoxytricosa-8,12,14-triene-11-olide] | 4.3 nM | 6 nM
CC[C@H](O)[C@@H](C)[C@H]1O[C@@H]1C[C@H](C)/C=C/C=C(\C)[C@H]1OC(=O)C[C@H](O)CC[C@@](C)(O)[C@@H](OC(=O)NCCOCCOCCNC(=O)CCCCC2=[N+]3C(=Cc4c(C)cc(C)n4[B-]3(F)F)C=C2)/C=C/[C@@H]1C [CID16202134] | 78.4 nM and 645 nM | 70.2 nM

Reference: BindingDB's records for doi:10.1038/nchembio.2007.16 (Eisai Co., Ltd, 2007)
